These results are taken from patent US20200239832A1, “TOLERANCE OF MICROBIAL CELLS AGAINST ORTHO-AMINOBENZOATE IN PRESENCE OF ALKALI IONS AT NEUTRAL PH” (priority 2017, published 2020).

Molecules are shown by their SMILES.

Common to all, as to type: cell-based, Corynebacterium glutamicum
In test [1] the test system is C. glutamicum strain derived from ATCC 13032 by evolutionary engineering. The test can be described thus: Comparison of metabolic activity after NH4-oAB and Na-oAB addition, batch cultivation in 1 L bioreactors (Example 2). Particulars: 40 mL of 500 g/L oAB stock solution at pH 7 added after 7 h and 24 h; FIG. 2. On the procedure: (§1) FIG. 2: Influence of Na-oAB and NH4-oAB addition on oAB resistance during batch cultivation in 1 L scale with C. glutamicum ATCC 13032. Filled symbols: addition of 40 mL of 500 a oAB stock solution (oAB dissolved with NaOH at pH 7) after 7 h and 24 h. Open symbols: addition of 40 mL of 500 g/L oAB stock solution (oAB dissolved with NH4OH at pH 7) after 7 h and 24 h. Both bioreactors: addition of 36 g/L glucose (added as stock solution) after 7.5 h and 24.5 h to prevent a glucose limitation. Initial cultivation volume VL=1 L, temperature 30° C., pH=7 controlled with NH4OH (10 w % NH3), gassing rate with air=0.2 L/min, pO2 controlled at 30% air saturation by adjusting the stirrer speed between 200 and 1200 rpm.
A C. glutamicum strain derived from ATCC 13032 was used to compare the metabolic activity after NH4-oAB and Na-oAB addition during the cultivation. This strain was derived from Corynebacterium glutamicum ATCC 13032 by evolutionary engineering in order to increase its resistance against oAB.
It was not further genetically modified. Thus it was not capable of oAB-production. For this purpose, two 1 L bioreactors were filled with sterile cultivation medium including the following initial concentrations: 20 g/L glucose, 5 g/L (NH4)2SO4, 1 g/L KH2PO4, 1 g/L K2HPO4, 0.25 g/L MgSO4.7 H2O, 0.01 g/L CaCl2.2 H2O, 2 mg/L biotin (vitamin B7), 0.03 g/L protocatechuic acid (3,4-Dihydroxybenzoic acid), 0.01 g/L MnSO4.H2O, 0.01 g/L FeSO4.7H2O, 1 mg/L ZnSO4.7H2O, 0.2 mg/L CuSO4.5H2O and 0.02 mg/L NiCl2.6H2O.
The preculture medium for the cultivation in shake flasks contained additionally 42 g/L MOPS buffer, 3.7 g/L brain heart infusion broth, 5 g/L urea (CH4N2O) and […] (instead of 5 g/L). The preculture was cultivated in 300 mL shake flasks with a liquid volume of 25 mL at a temperatur of 28° C. and a shaking frequency of 180 rpm until OD600>20 was reached.

Another test relates to C. glutamicum ATCC 13032. Briefly: Comparison of metabolic activity after NH4-oAB and Na-oAB addition, batch cultivation in 1 L bioreactors (Example 3). To be noted: for biomass accumulation after oAB addition: 40 mL of 500 g/L oAB stock solution at pH 7 added after 6.4 h and 23.6 h, FIG. 3. The method, then:
as §1, with “FIG. 3:” for “FIG. 2:”, “500 g/L” for “500 a”, “after 6.4” for “after 7”, “and 23.6” for “and 24”, “h.” for “h. Both bioreactors: addition of 36 g/L glucose (added as stock solution) after 7.5 h and 24.5 h to prevent a glucose limitation.”
The influence of NH4 was tested with C. glutamicum ATCC 13032 (without further genetic modifications, not modified by evolutionary engineering) using two 1 L bioreactors filled with sterile cultivation medium including the following initial concentrations: […], 5 g/L (NH4)2SO4, 1 g/L KH2PO4, 1 g/L K2HPO4, 0.25 g/L MgSO4.7 H2O, 0.01 g/L CaCl2.2 H2O, 2 mg/L biotin (vitamin B7), 0.03 g/L protocatechuic acid (3,4-Dihydroxybenzoic acid), 0.01 g/L MnSO4.H2O, 0.01 g/L FeSO4.7H2O, 1 mg/L ZnSO4.7H2O, 0.2 mg/L CuSO4.5H2O and 0.02 mg/L NiCl2.6H2O.
The preculture medium for the cultivation in shake flasks contained additionally 42 g/L MOPS buffer, 3.7 g/L brain heart infusion broth, 5 g/L urea (CH4N2O) and 20 g/L (NH4)2SO4 (instead of 5 g/L). The preculture was cultivated in 300 mL shake flasks with a liquid volume of 25 mL at a temperatur of 28° C. and a shaking frequency of 180 rpm until OD600>20 was reached.
During the fermentation the temperature was controlled at 30° C. and pH was kept constant at pH=7 by adding aqueous NH4OH solution (10 w % NH3). The gassing rate was adjusted to 0.2 L/min air and the dissolved oxygen tension was controlled at 30% air saturation by adjusting the stirrer speed between 200 rpm and 1200 rpm.
40 mL of a 500 g/L oAB stock solution (oAB dissolved with NaOH at pH 7) was added to reactor 1 after 6.4 h and 23.6 h (filled symbols) and 40 mL of a 500 g/L oAB stock solution (oAB dissolved with NH4OH at pH 7) was added after 6.4 h and 23.6 h to reactor 2 (open symbols)
From this it follows that the toxicity of oAB on C. glutamicum ATCC 13032 in presence of high Na+ concentrations is reduced compared to the toxicity in presence of high NH4^+ concentrations.

The subject of test [2] is modified C. glutamicum production strain. Briefly: Evaluation of the maximum tolerable oAB concentration, batch cultivation in 1 L bioreactor. The method, then:
FIG. 1: Evaluation of the maximum tolerable oAB concentration during batch cultivation in a 1 L lab-scale bioreactor with a modified C. glutamicum production strain. Addition of 20 mL of a 500 g/L oAB stock solution (oAB dissolved with NaOH at pH 7) after 23 h and 39 h, 48 h (two times), 64 h (two times) and 71 h (two times) and addition of glucose solution after 40 h, 48 h, 63 h, 65 and 71.5 h to prevent a glucose limitation. Initial cultivation volume VL=1 L, temperature 30° C., pH=7 controlled by adding NH4OH (10 w % NH3) during cultivation, gassing rate with air=0.2 L/min, pO2 controlled at 30% air saturation by adjusting the stirrer speed between 200 and 1200 rpm.
The maximum tolerable oAB concentration in the presence of sodium ions in the medium was tested with a modified C. glutamicum production strain. This strain was derived from Corynebacterium glutamicum ATCC 13032 by evolutionary engineering in order to increase its resistance against oAB.
This strain was then genetically modified to make it capable of oAB-production. […]

The mark [3] stands for this setting: according to FIG. 3, NH4+ as counter ion.

With `N.Nc1ccccc1C(=O)O` [NH4-oAB], in test [1], the “OTR signal after oAB addition” value is “constant OTR signal” and the “biomass concentration after oAB addition” value was “reduced biomass accumulation”. Besides, in the test on C. glutamicum ATCC 13032, the “biomass accumulation after oAB addition” value is given as “growth inhibition after 24 h”. For the same molecule, in the test on C. glutamicum ATCC 13032 (setting [3]), the “o-aminobenzoate concentration above which the metabolic activity of bacterial cells (OTR) is limited” value is listed as “more than 25 g/L” and the “o-aminobenzoate concentration at which cell growth (dry weight) stops” value is recorded as above 50 g/L.
Take `Nc1ccccc1C(=O)[O-].[Na+]` [Na-oAB]: in test [1], the “OTR signal after oAB addition” value is on record as “continued to increase” and the “biomass concentration after oAB addition” value was “continued to increase”. For the same molecule, the “biomass accumulation after oAB addition” value with C. glutamicum ATCC 13032 is listed as “biomass accumulation continued”.
Regarding `Nc1ccccc1C(=O)O` [oAB, 2-aminobenzoic acid], in test [2] (oAB added stepwise as sodium salt (dissolved with NaOH at pH 7), pH 7 controlled with NH4OH, 30° C.), the “oAB concentration at which growth (increase in biomass concentration) was still observed” value is 80 g/L. The “oAB concentration resulting in a decrease of the metabolic activity (declining OTR signal) and no further increase in biomass” value in test [2] (oAB increased from 80 g/L to 100 g/L after 71 h, added as sodium salt, pH 7, 30° C.) is on record as 100 g/L.
